In test [1] the test system is FGFR2^∂23-Y328D. Put plainly: FGF2-induced ERK1/2 phosphorylation in HEK293 cells, FGFR2 Y328D. The format is cell-based, human. The conditions noted are these: Erk1/2 western blot densitometry IC50. The protocol: HEK293 cells were either transiently of stably transfected (using FuGENE 6, Roche) with hFGFR2IIIca or hFGFR2IIIca-Y328D cloned in pcDNA3 (Invitrogen). Stably transfected cells were grown in G418 (400 μg/ml) containing medium. Before stimulation, the cells were starved overnight in DMEM (0% serum), and pre-incubated with […] at the required concentration. The cells were subsequently stimulated with FGF2 (concentration between 0.5-10 ng/ml) for 5 min at 37° C. with or without SSR or SU5402 at 1 μM. After washing with ice-cold phosphate-buffered saline containing phosphatase inhibitors (Roche), cells were lysed in RIPA buffer (Tris 30 mM HCl pH 7.5, 150 mM NaCl, 1 mM EDTA, 1% triton-X, 0.5% w/v deoxycholate, containing phophatase and protease inhibitors as described by the manufacturer (Roche)). Cell lysates were centrifuged at 12,000 g for 10 min, and the supernatants were collected. Proteins were separated on Novex polyacrylamide gels (Invitrogen, Carlsbad, Calif.) and subsequently transferred onto Hybond ECL nitrocellulose membranes (Amersham Pharmacia). Following incubation with 5% non-fat milk powder in PBS, the membranes were incubated overnight at 4° C. with the following antibodies: phospho-ERK1/2 (CST:9101), phospho-FRS2 (CST:3861), phospho-PLCγ (CST:2821) and FGFR2 (F0300, Sigma).
For orientation: Immunoblotting shows a protein as a band on a membrane.

Test [2] concerns HUVEC. Put plainly: HUVEC in vitro angiogenesis. The class given is cell-based, human. The following applies: low nanomolar range. Here is the method:
Collagen/matrigel gels are prepared by distributing in each well of a chamberslide (Biocoat Cellware collagen, Type I, 8-well culturesides: Becton dickinson 354630), 160 μl of 1/6 diluted matrigel (Growth factor reduced Matrigel: Becton dickinson 356230) in collagen I (rat Tail collagene, type I: Becton dickinson 354236). Polymerisation occurs at 37° C. for 1 h. Then, 15.10^3 HUVEC are added per well in 400 μl EBM medium (Clonetics C3121)+2% FCS+hEGF 10 μg/ml. Endothelial cells are stimulated with 10 ng/ml of FGF2 (R&D, 133-FB-025), FGF4 (R&D, 235-F4-025) or FGF19 (R&D, 969-FG-025) for 24 h at 37° C. in a CO2 chamber. Then, total length of pseudotubules is quantified using a bioimaging system (Imagenia Biocom, Courtaboeuf, France).

Test [3] has as its target T1, FGFR2 (Homo sapiens, UniProt P21802).
T1 construct: or the expression of the entire intact receptor in its native environment
Description: FGF ligand binding to FGFR2 in intact cells. The following applies: receptor expressed in intact cells.

In test [4] the test system is AKT phosphorylation in HUVEC cells. Put plainly: western blot analysis of AKT phosphorylation in HUVEC. The format is cell-based, human. The conditions noted are these: phospho-AKT Ser473. The protocol: HUVE Cells (Promocell, C-12200) are seeded in 35 mm collagen I coated disk (BD Biocoat, 354456) at 0.5.10^6 cells in 2 ml of EBM medium (Clonetics, CC-3121) containing 2% FBS (Clonetics, CC-4101), 10 μg/ml hEGF (Clonetics, CC-4017) from the EGM singlequots kit (Clonetics, CC-4133), 1250 ng/ml heparin (Sigma, H3149) and 375 ng/ml ECGS (BD Biosciences, 356006). At 90% confluency, cells are starved overernight in 1.8 ml of RPMI 1640 (Invitrogen, 32404-014), 0.5% FCS, 2 mM glutamine, 1 mM non-essential amino acids (Invitrogen, 11140-050), sodium pyruvate (Invitrogen, 11360-070). The day after, cells are stimulated 10 min by 200 μl of equilibrated starvation medium that contains 10×FGF-4 (30 ng/ml; R&D, 235-F4-025) with or without 10×SSR (3 μM). Next, cells are rinsed with cold PBS and cell lysed with 75 μl RIPA that contains 2.5 mM orthovanadate and protease inhibitors cocktail (Sigma, P8340). Cell lysates were centrifuged at 12,000 g for 10 min, and the supernatants were collected. Proteins were separated on 4-20% Novex Tris-Glycine polyacrylamide gels (Invitrogen) and subsequently transferred onto nitrocellulose membranes (Invitrogen, IB3010-01). […] Signal of each spot is obtained following chemiluminescent detection with SuperSignal® West Dura Extended Duration Substrate (Thermo Scientific, 34076) and spot density is quantified using a Biolmaging System Chemigenius2 (Syngene).

Test [5] deals with FGFR2^∂23-Y328D (Homo sapiens, UniProt P21802, Y328D). Put plainly: ITC, FGFR2 Y328D mutant. The format is binding. Further details: FGFR2^∂23 (consisting of domain D2 and 3); made in house. The protocol: All calorimetric experiments were performed at 30° C. with a VP-ITC titration calorimeter (MicroCal Inc., Northampton, Mass.) as previously described^45. Titrations involved the addition of 10 μL aliquots of 1.25 mM SSR via a rotating stirrer-syringe to the solution cell containing 1.407 mL of the 10-20 μM interacting protein (i.e. FGFR2^∂123, FGFR2^∂23 and its described mutants and subdomains, FGFR3^∂123, FGF1, FGF2 and Follistatin (as negative control) at 4 min intervals. A constant stirring speed of 300 rpm was maintained and data were fitted to the standard noninteracting one site model supplied by MicroCal, with n fixed as 1.0. All measurements were performed in 10 mM HEPES pH7.2, 150 mM NaCl, and proteins were purified as previously described (Pellegrini et al., 2000). Mutagenesis was performed using the ‘site directed mutagenesis kit’ (Stratagene).
FGFR2^∂23-Y328D (Homo sapiens, UniProt P21802, Y328D), sequence (P21802 148-366 Y328D limits assumed): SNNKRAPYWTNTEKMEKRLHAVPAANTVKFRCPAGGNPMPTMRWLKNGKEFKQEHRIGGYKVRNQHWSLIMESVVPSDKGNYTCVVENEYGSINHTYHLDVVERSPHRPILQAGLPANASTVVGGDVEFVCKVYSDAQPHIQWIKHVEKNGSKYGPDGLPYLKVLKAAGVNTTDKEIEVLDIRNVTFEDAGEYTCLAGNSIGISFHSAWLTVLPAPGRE
We next explored whether SSR bound to amino acid residues that form part of the orthosteric site in D3 or to an alternative allosteric site. Initially, we used the molecular docking algorithms of the software packages MOLEGRO, Autodock and YASARA and available crystallographic data. […] We also analyzed the FTIR spectrum of the aforementioned mutated FGFR2 fragments.

Test [6] addresses T1, FGFR2. Put plainly: FGFR2 multimerization. The class given is biochemical.

SMILES strings stand for the structures.

T1 sequence (P21802 22-821): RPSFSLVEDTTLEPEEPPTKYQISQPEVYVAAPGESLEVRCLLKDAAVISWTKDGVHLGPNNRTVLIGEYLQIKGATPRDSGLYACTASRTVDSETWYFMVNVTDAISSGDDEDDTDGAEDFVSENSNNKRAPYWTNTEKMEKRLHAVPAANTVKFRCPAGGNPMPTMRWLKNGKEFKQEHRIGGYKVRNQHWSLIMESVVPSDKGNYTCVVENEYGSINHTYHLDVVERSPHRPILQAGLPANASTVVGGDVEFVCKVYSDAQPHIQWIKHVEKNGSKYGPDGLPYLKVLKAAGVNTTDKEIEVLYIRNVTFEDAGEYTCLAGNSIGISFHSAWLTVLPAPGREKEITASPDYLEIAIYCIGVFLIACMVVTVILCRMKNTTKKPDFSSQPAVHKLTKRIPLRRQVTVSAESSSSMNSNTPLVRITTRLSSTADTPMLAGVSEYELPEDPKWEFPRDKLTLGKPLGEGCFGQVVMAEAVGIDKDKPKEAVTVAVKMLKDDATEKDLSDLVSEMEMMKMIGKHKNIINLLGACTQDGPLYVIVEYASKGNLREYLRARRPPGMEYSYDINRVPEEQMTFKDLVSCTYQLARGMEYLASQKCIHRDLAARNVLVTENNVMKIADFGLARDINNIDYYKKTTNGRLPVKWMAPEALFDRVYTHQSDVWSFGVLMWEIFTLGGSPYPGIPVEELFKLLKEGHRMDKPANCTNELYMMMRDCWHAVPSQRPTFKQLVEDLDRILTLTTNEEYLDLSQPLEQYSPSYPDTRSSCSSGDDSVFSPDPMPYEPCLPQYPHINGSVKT

`COc1c(C)c(C(=O)c2ccc(N)c(C(=O)[O-])c2)n2ccccc12.[Na+]` [SSR]: the “sensitivity to SSR inhibition, FGFR2-Y328D compared to FGFR2-WT” value in test [1] is on record as “about 5 times less sensitive”. For the same compound, the “FGF2-induced HUVEC in vitro angiogenesis” value in test [2] was “blocks FGF2-induced HUVEC angiogenesis”. Moreover, in test [3], the “binding of FGF2 or FGF4 to FGFR2” value is given as “failed to antagonize”. In addition, the “FGF-induced AKT phosphorylation” value in test [4] is “inhibit”. Moreover, the “binding to FGFR2^∂23-Y328D” value in test [5] is listed as “failed to bind”. Moreover, the “FGFR2 dimerization (multimerization)” value in test [6] is recorded as “not able to inhibit”.
